Results reported in US11377499B2, “Targeting the cofilin pathway” (priority 2017, dated 2022).

Assays:
[1] = test system: cofilin phosphorylation in resting memory CD4 T cells; test: Intracellular p-cofilin staining and flow cytometry after HIV-1(AD8) or gp120(BAL) stimulation; format: cell-based, human
Source text: In addition to CXCR4, CCR5 is used by R5-tropic viruses that predominate early in the infection; R5 HIV infects and depletes gut memory CD4 T cells, leading to chronic immune activation (20, 21). Whether HIV-mediated CCR5 signaling can also lead to cofilin activation in memory T cells was investigated. In contrast to X4 viruses, which infect both memory and naïve CD4 T cells, R5 viruses infect a subpopulation of memory CD4 T cells (FIG. 1A). CCR5 is present on only around 30% of resting memory CD4 T cells (FIG. 1B). Given this low percentage, a flow cytometry-based intracellular phospho-cofilin staining method was used to quantify cofilin in individual cells. […]
A3R5.7 cell is acquired from the NIH AIDS Reagent Program. […] Viral titer (TCID50) was determined on the Rev-dependent GFP indicator cell (61), Rev-A3R5-GFP (Virongy, Manassas, Va.). […] T cells were stained with anti-CD45RO-Pacific Blue monoclonal antibody (BD Pharmingen) and analyzed by Flow Cytometry for CD45RO and GFP expression. […]
One million cells were fixed, permeabilized with methanol, washed, and then stained with an anti-human p-cofilin antibody using a commercial intracellular staining kit (Virongy, Manassas, Va.) for 60 min at room temperature. […] Cells were washed twice, and then analyzed on a FACSCalibur (BD Biosciences, San Jose, Calif.).

[2] = test system: A3R5.7 T cells or blood resting CD4 T cells; test: Chemotaxis trans-well assay in response to SDF-1; format: cell-based, human
Description: (§1) Cells were stained with PE-labeled Rat anti-human CCR5 antibody (Biolegend, San Diego, Calif.) or with a mouse anti-human α4β7 integrin antibody (Act-1) (obtained from NIH AIDS Reagent Program) followed by secondary antibody staining with Alexa Fluor 647-labelled goat anti-mouse antibodies (Invitrogen, Carlsbad, Calif.). Cells were stained on ice in PBS+0.1% BSA for 30 minutes, washed with cold PBS-0.5% BSA, and then analyzed on a FACSCalibur (BD Biosciences, San Jose, Calif.).
A half million cells were resuspended into 100 μl RPMI-1640 medium and then added to the upper chamber of a 24-well trans-well plate (Corning, Corning, N.Y.). The lower chamber was filled with 600 μl of medium premixed with SDF-1 (40 ng/ml). The plate was incubated at 37° C. for 2 hours, and then the upper chamber was removed and cells in the lower chamber were counted. Where indicated, different concentrations of R10015 (29) or DMSO were added to cell culture, incubated for 1 hour at 37° C. before adding cells to the upper chamber. Cells were also treated with the anti-human α4β7 integrin antibody (Act-1) or the control mouse IgG1 antibody for 15 minutes before adding cells to the upper chamber. Act-1 (1 μg/ml) was also added to the lower chamber with SDF-1 (40 ng/ml).

[3] = test system: cofilin phosphorylation in A3R5.7 T cells or blood resting CD4 T cells; test: Western blot for p-cofilin and cofilin after R10015 treatment; format: cell-based, human
Source text: Cofilin hyperactivation may be associated with a migratory impairment of CCR6+ and CXCR3+ helper T cells (Th), which are prevented from trafficking from the blood stream to peripheral organs even in aviremic HIV patients on long-term ART (5). T cell migration and homing is controlled by chemotactic signaling which activates cycles of cofilin phosphorylation and dephosphorylation to drive actin dynamics for cell motility. Phosphorylation of cofilin is regulated by LIM-domain kinase (LIMK), which inactivates cofilin through serine 3 phosphorylation (28). To quantify the effect of cofilin hyperactivation on T cell migration, a recently discovered LIMK inhibitor, R10015 (29) was used, to mimic cofilin activation in HIV infection. A human CD4 T cell line, A3R5.7, or blood resting CD4 T cells were treated with different dosages of R10015 during chemotaxis (FIG. 3). […] At around 15 to 20 μM of R10015, cofilin phosphorylation was reduced to around 50%, approximately the level seen in HIV patients (FIGS. 3A and 3B).
One million cells were lysed in NuPAGE LDS Sample Buffer (Invitrogen, Carlsbad, Calif.) followed by sonication. Samples were heated at 70° C. for 10 minutes, separated by SDS-PAGE, and then transferred onto nitrocellulose membranes (Invitrogen, Carlsbad, Calif.). The membranes were washed in TBST for 3 minutes and then blocked for 30 minutes at room temperature with 5% milk. […]

LIMK = settings: previously identified (30); cited from earlier work
[4] = prevents therapeutic use; cited from earlier work
[5] = test system: cofilin phosphorylation in resting memory and IL-7-cultured naïve CD4 T cells (α4β7 integrin); test: Intracellular p-cofilin staining and flow cytometry after Act-1 stimulation; format: cell-based, human; settings: memory T cells treated with PTX 2 hours, then Act-1 1 μg/ml; 30 min
Description: In the human peripheral blood, high levels of α4β7 were detected on a subpopulation of resting memory CD4 T cells (36).
One million cells were fixed, permeabilized with methanol, washed, and then stained with an anti-human p-cofilin antibody using a commercial intracellular staining kit (Virongy, Manassas, Va.) for 60 min at room temperature. Cells were washed twice and stained with Alexa Fluor 488-labeled chicken anti-rabbit antibodies (Invitrogen, Carlsbad, Calif.). Cells were washed twice, and then analyzed on a FACSCalibur (BD Biosciences, San Jose, Calif.).

[6] = test system: α4β7 on naïve CD4 T cells; test: Surface staining of α4β7 and flow cytometry; format: cell-based, human; settings: naïve T cells cultured in IL-7 (5 ng/ml) for 3 days; FIG. 5
Source text: All protocols involving human subjects were reviewed and approved by the George Mason University institutional review board. Peripheral blood mononuclear cells (PBMC) were purified from peripheral blood of HIV-negative donors by centrifugation in Lymphocyte Separation Medium (Corning, Corning, N.Y.), and resting CD4 T cells were further purified by two rounds of negative selection as previously described (13, 54). Briefly, for the first-round depletion, monoclonal antibodies against human CD14, CD56 and HLA-DR, DP, and DQ (BD Biosciences, San Jose, Calif.) were used. For the second-round depletion, monoclonal antibodies against human CD8, CD11b, and CD19 (BD Biosciences, San Jose, Calif.) were used. Antibody-bound cells were depleted using Dynabeads Pan Mouse IgG (Invitrogen, Carlsbad, Calif.). […]
as §1

Cc1nnc(C(C)C)n1C1C[C@H]2CC[C@@H](C1)N2CC[C@H](NC(=O)C1CCC(F)(F)CC1)c1ccccc1 (stereo in doubt) [maravoric]
cofilin activation by gp120(BAL) after pretreatment with CCR5 blocker ([1]; maravoric 1 μM for 1 hour, then gp120(BAL) 100 nM, FIG. 1D): largely abrogated

COC(=O)c1ccc2nc(C3CCN(c4ncnc5[nH]cc(Cl)c45)CC3)[nH]c2c1 [R10015]
decrease in migrating T cells ([2]; 15 μM or 20 μM R10015 (50% reduction in cofilin phosphorylation), A3R5.7 and blood T cells, SDF-1 40 ng/ml): 20-40% | percentage of migrating α4β7^high T cells ([2]; R10015 alone, control 8.90%, FIG. 4F): 4.52% | percentage of the CCR7^+ T cell subpopulation among migrating cells ([2]; R10015 and Act-1, FIG. 8): not altered | impairment of T cell chemotaxis ([2]; different dosages of R10015, SDF-1 40 ng/ml, FIGS. 3C and 3D): dosage-dependent impairment of T cell chemotaxis | cofilin phosphorylation reduced to ([3]; around 15 to 20 μM R10015, one hour, A3R5.7 or blood resting CD4 T cells): around 50% | dephosphorylation of cofilin ([3]; different dosages of R10015, one hour, FIGS. 3A and 3B): dosage-dependent dephosphorylation of cofilin

C=C1[C@@H](O)[C@@H]2O[C@]3(CC[C@H](/C=C/[C@@H](C)[C@@H]4CC(C)=C[C@@]5(O[C@H](C[C@@](C)(O)C(=O)O)CC[C@H]5O)O4)O3)CC[C@H]2O[C@@H]1[C@@H](O)C[C@H](C)[C@H]1O[C@@]2(CCCCO2)CC[C@H]1C [okadaic acid]
LIMK activation, cofilin phosphorylation and actin polymerization (LIMK): activate LIMK and enhance cofilin phosphorylation and actin polymerization | toxicity [4]: high toxicity

pertussis toxin
Act-1-mediated cofilin activation after PTX [5]: late inhibition of cofilin activation | cofilin activation (dephosphorylation) following exposure to R5-HIV ([1]; resting memory CD4 T cells, pertussis toxin 100 ng/ml for 1 hour, then HIV(AD8), FIG. 1C): largely abrogated late cofilin activation

B1: IL-7: cytokine used to culture naïve T cells for α4β7 surface receptor upregulation (protein, UniProt P13232 26-177, looked up)
Interleukin-7: DCDIEGKDGKQYESVLMVSIDQLLDSMKEIGSNCLNNEFNFFKRHICDANKEGMFLFRAARKLRQFLKMNSTGDFDLHLLKVSEGTTILLNCTGQVKGRKPAALGEAQPTKSLEENKSLKEQKKLNDLCFLKRLLQEIKTCWNKILMGTKEH
α4β7 surface expression [6]: greatly upregulate α4β7 on the cell surface
